Assay results: patent publication US11795204B2 (Zealand Pharma A/S, priority 2012, dated 2023)
Square brackets hold non-standard residues; d marks the D form. Peptide text beside a SMILES is read from it. Dab = NCC[C@H](N)C(=O)O; Aib = CC(C)(N)C(=O)O

Legend:
[1] = physchem; conditions: pH 7.5
Protocol: A stock solution of the test peptide (2 mg/ml; determined by measurement of the absorption of the solution at 280 nm, and using the theoretical extension coefficient based on the content of tryptophan and tyrosine in the peptide) in demineralized water adjusted to pH 2.5 with HCl was prepared, and aliquots were diluted 1:1 in 100 mM acetate buffer (pH 4.0) and 100 mM phosphate buffer (pH 7.5), respectively, and loaded in a standard flat-bottom, non-sterile 96-well UV Microplate. The absorbance of samples (single samples, n=1) at 280 and 325 nm was measured in an absorbance-based plate reader, which was preheated to ambient temperature.

[2] = Chemical stability assessment (RP-HPLC normalized purity); format: physicochemical; conditions: for Normalized purity pH 4.0 after 14 days: 1 mg/ml in 50 mM acetate buffer pH 4.0, 40° C.; for Normalized purity pH 7.5 after 14 days: 1 mg/ml in 50 mM phosphate buffer pH 7.5, 40° C.
Protocol: Samples were placed in glass vials and incubated at 40° C. The samples were analysed by reverse-phase HPLC on a C18 column with gradient elution using an acetonitrile/trifluoroacetic acid/water eluent system. The area-percentage (area-%) of the main peak after incubation time T=t (relative to time T=0) was detected by UV spectrometry at 220 nm. The purity was first determined as follows: Purity(area-%)=(area of main peak/total area of all peaks)×100. […] Normalized purity values in Table 2 were determined after 14 days of incubation.

[3] = target: T1, human Glucagon-R (Homo sapiens, UniProt P47871); experiment: Glucagon receptor assay (cAMP induction, AlphaScreen); format: cell-based; conditions: HEK293 cells expressing the human Glucagon-R, 15 min at 37° C., read-out: GCG-R EC50 in vitro
T1 construct: expressed in transfected cells
Protocol: The 5′-end primers additionally encoded a near-Kozak consensus sequence to ensure efficient translation. […] 48 hr after transfection, cells were seeded for limited dilution cloning and selected with 1 mg/ml G418 in the culture medium.
On the day of analysis, growth medium was removed and the cells were washed once with […] of the included Assay buffer with IBMX. Cells were incubated in […] Assay buffer/IBMX containing increasing concentrations of test peptides for 15 min at 37° C. Then the peptides/Assay buffer was removed and cells were lysed by addition of […] Lysis buffer pr. well and incubation for at least 10 min at room temperature. From each well […] cell lysate was transferred to a 384-well OptiPlate and mixed with Donor and Acceptor beads and incubated for 1 h at room temperature. The cAMP content was measured on an Envision plate reader.

T1 sequence (P47871 26-477): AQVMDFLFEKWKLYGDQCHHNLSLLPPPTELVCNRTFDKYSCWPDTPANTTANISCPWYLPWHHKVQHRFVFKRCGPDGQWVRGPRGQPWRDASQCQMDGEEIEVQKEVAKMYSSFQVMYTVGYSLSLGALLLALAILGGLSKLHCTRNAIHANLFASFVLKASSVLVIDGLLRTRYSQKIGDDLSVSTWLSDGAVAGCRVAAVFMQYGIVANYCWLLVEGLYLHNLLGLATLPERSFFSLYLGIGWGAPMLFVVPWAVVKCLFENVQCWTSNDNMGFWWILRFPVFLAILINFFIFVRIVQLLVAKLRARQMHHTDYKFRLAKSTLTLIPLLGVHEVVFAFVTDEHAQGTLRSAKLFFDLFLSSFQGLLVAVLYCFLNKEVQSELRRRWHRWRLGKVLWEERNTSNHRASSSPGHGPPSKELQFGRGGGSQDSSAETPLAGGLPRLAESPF

Compound | solubility [1] [µg/mL] | Normalized purity pH 4.0 after 14 days [2] [%] | Normalized purity pH 7.5 after 14 days [2] [%] | EC50 [3] [nM]
CC(C)C[C@H](NC(=O)[C@H](Cc1c[nH]c2ccccc12)NC(=O)[C@H](CCCCN)NC(=O)[C@@H](NC(=O)[C@H](Cc1ccccc1)NC(=O)[C@H](CO)NC(=O)[C@H](CCC(=O)O)NC(=O)[C@H](C)NC(=O)[C@H](CCCNC(=N)N)NC(=O)[C@H](CCCNC(=N)N)NC(=O)C(C)(C)NC(=O)[C@H](CC(=O)O)NC(=O)[C@H](CC(C)C)NC(=O)[C@H](Cc1ccc(O)cc1)NC(=O)[C@H](CCCCN)NC(=O)[C@H](CO)NC(=O)[C@H](Cc1ccc(O)cc1)NC(=O)[C@H](CC(=O)O)NC(=O)[C@H](CO)NC(=O)[C@@H](NC(=O)[C@H](Cc1ccccc1)NC(=O)[C@@H](NC(=O)CNC(=O)[C@H](CCC(N)=O)NC(=O)[C@H](CO)NC(=O)[C@@H](N)Cc1c[nH]cn1)[C@@H](C)O)[C@@H](C)O)C(C)C)C(=O)N[C@@H](CCC(=O)O)C(=O)N[C@@H](CO)C(=O)N[C@H](C(=O)O)[C@@H](C)O [Compound 25] (H-HSQGTFTSDYSKYLD[Aib]RRAESFVKWLEST-OH) | ≥ 1000 | 93.8 | 89.8 | 0.0066
CNC(=O)CC[C@H](NC(=O)[C@H](CO)NC(=O)[C@@H](N)Cc1c[nH]cn1)C(=O)NCC(=O)N[C@H](C(=O)N[C@@H](Cc1ccccc1)C(=O)N[C@H](C(=O)N[C@@H](CO)C(=O)N[C@@H](CC(=O)O)C(=O)N[C@@H](Cc1ccc(O)cc1)C(=O)N[C@@H](CO)C(=O)N[C@@H](CCCCN)C(=O)N[C@@H](Cc1ccc(O)cc1)C(=O)N[C@@H](CC(C)C)C(=O)N[C@@H](CC(=O)O)C(=O)NC(C)(C)C(=O)N[C@@H](C)C(=O)N[C@@H](CCCNC(=N)N)C(=O)N[C@@H](C)C(=O)N[C@@H](CCC(=O)O)C(=O)N[C@@H](CO)C(=O)N[C@@H](Cc1ccccc1)C(=O)N[C@H](C(=O)N[C@@H](CCCCN)C(=O)N[C@@H](Cc1c[nH]c2ccccc12)C(=O)N[C@@H](CC(C)C)C(=O)N[C@@H](CCC(=O)O)C(=O)N[C@@H](CO)C(=O)N[C@H](C(=O)O)[C@@H](C)O)C(C)C)[C@@H](C)O)[C@@H](C)O [Compound 26] (H-HSE(NHMe)GTFTSDYSKYLD[Aib]ARAESFVKWLEST-OH) | ≥ 1000 | 90 | 93.9 | 0.0069
CC(C)C[C@H](NC(=O)[C@H](Cc1c[nH]c2ccccc12)NC(=O)[C@H](CCC(=O)O)NC(=O)[C@@H](NC(=O)[C@H](Cc1ccccc1)NC(=O)[C@H](CO)NC(=O)[C@H](CCCCN)NC(=O)[C@H](C)NC(=O)[C@H](CCCNC(=N)N)NC(=O)[C@H](C)NC(=O)C(C)(C)NC(=O)[C@H](CC(=O)O)NC(=O)[C@H](CC(C)C)NC(=O)[C@H](Cc1ccc(O)cc1)NC(=O)[C@H](CCCCN)NC(=O)[C@H](CO)NC(=O)[C@H](Cc1ccc(O)cc1)NC(=O)[C@H](CC(=O)O)NC(=O)[C@H](CO)NC(=O)[C@@H](NC(=O)[C@H](Cc1ccccc1)NC(=O)[C@@H](NC(=O)CNC(=O)[C@H](CCC(N)=O)NC(=O)[C@H](CO)NC(=O)[C@@H](N)Cc1c[nH]cn1)[C@@H](C)O)[C@@H](C)O)C(C)C)C(=O)N[C@@H](CCC(=O)O)C(=O)N[C@@H](CCCCN)C(=O)N[C@H](C(=O)O)[C@@H](C)O [Compound 29] (H-HSQGTFTSDYSKYLD[Aib]ARAKSFVEWLEKT-OH) | ≥ 1000 | 91 | 91.6 | 0.023
CC(C)C[C@H](NC(=O)[C@H](Cc1c[nH]c2ccccc12)NC(=O)[C@H](CCCCN)NC(=O)[C@@H](NC(=O)[C@H](Cc1ccccc1)NC(=O)[C@H](CO)NC(=O)[C@H](CCC(=O)O)NC(=O)[C@H](C)NC(=O)[C@H](CCCNC(=N)N)NC(=O)[C@H](C)NC(=O)C(C)(C)NC(=O)[C@H](CC(=O)O)NC(=O)[C@H](CC(C)C)NC(=O)[C@H](Cc1ccc(O)cc1)NC(=O)[C@H](CCCCN)NC(=O)[C@H](CO)NC(=O)[C@H](Cc1ccc(O)cc1)NC(=O)[C@H](CC(=O)O)NC(=O)[C@H](CO)NC(=O)[C@@H](NC(=O)[C@H](Cc1ccccc1)NC(=O)[C@@H](NC(=O)CNC(=O)[C@H](CCC(N)=O)NC(=O)[C@H](CO)NC(=O)[C@@H](N)Cc1c[nH]cn1)[C@@H](C)O)[C@@H](C)O)C(C)C)C(=O)N[C@@H](CCC(=O)O)C(=O)N[C@@H](CO)C(=O)N[C@@H](C)C(=O)O [Compound 30] (H-HSQGTFTSDYSKYLD[Aib]ARAESFVKWLESA-OH) | ≥ 1000 | 88.6 | 91.4 | 0.016
CC(C)C[C@H](NC(=O)[C@H](Cc1c[nH]c2ccccc12)NC(=O)[C@H](CCCCN)NC(=O)[C@@H](NC(=O)[C@H](Cc1ccccc1)NC(=O)[C@H](CO)NC(=O)[C@H](CCC(=O)O)NC(=O)[C@H](C)NC(=O)[C@H](CCCNC(=N)N)NC(=O)[C@H](C)NC(=O)C(C)(C)NC(=O)[C@H](CC(=O)O)NC(=O)[C@H](CC(C)C)NC(=O)[C@H](Cc1ccc(O)cc1)NC(=O)[C@H](CCCCN)NC(=O)[C@H](CO)NC(=O)[C@H](Cc1ccc(O)cc1)NC(=O)[C@H](CC(=O)O)NC(=O)[C@H](CO)NC(=O)[C@@H](NC(=O)[C@H](Cc1ccccc1)NC(=O)[C@@H](NC(=O)CNC(=O)[C@H](CCC(N)=O)NC(=O)[C@H](CO)NC(=O)[C@@H](N)Cc1c[nH]cn1)[C@@H](C)O)[C@@H](C)O)C(C)C)C(=O)N[C@@H](CCC(=O)O)C(=O)N[C@@H](CO)C(=O)N[C@H](C(N)=O)[C@@H](C)O [Compound 31] (H-HSQGTFTSDYSKYLD[Aib]ARAESFVKWLEST-NH2) | ≥ 1000 | 93.1 | 91.7 | 0.0072
CC(=O)NCC[C@H](NC(=O)[C@H](CO)NC(=O)[C@@H](N)Cc1c[nH]cn1)C(=O)NCC(=O)N[C@H](C(=O)N[C@@H](Cc1ccccc1)C(=O)N[C@H](C(=O)N[C@@H](CO)C(=O)N[C@@H](CC(=O)O)C(=O)N[C@@H](Cc1ccc(O)cc1)C(=O)N[C@@H](CO)C(=O)N[C@@H](CCCCN)C(=O)N[C@@H](Cc1ccc(O)cc1)C(=O)N[C@@H](CC(C)C)C(=O)N[C@@H](CC(=O)O)C(=O)NC(C)(C)C(=O)N[C@@H](C)C(=O)N[C@@H](CCCNC(=N)N)C(=O)N[C@@H](C)C(=O)N[C@@H](CCC(=O)O)C(=O)N[C@@H](CO)C(=O)N[C@@H](Cc1ccccc1)C(=O)N[C@H](C(=O)N[C@@H](CCCCN)C(=O)N[C@@H](Cc1c[nH]c2ccccc12)C(=O)N[C@@H](CC(C)C)C(=O)N[C@@H](CCC(=O)O)C(=O)N[C@@H](CO)C(=O)N[C@H](C(=O)O)[C@@H](C)O)C(C)C)[C@@H](C)O)[C@@H](C)O [Compound 32] (H-HS[Dab](Ac)GTFTSDYSKYLD[Aib]ARAESFVKWLEST-OH) | ≥ 1000 | 91.2 | 96.3 | 0.0093
H-HSQGTFTSDLSKYLDSARAEDFVKWLEST-OH [Compound 11] | ≥ 1000 | 78.6 | 89.9 | 0.11
H-HSQGTFTSDYSKYLDEARAEDFVKWLEST-OH [Compound 14] | ≥ 1000 | 89.5 | 92.4 | 0.15
H-HSQGTFTSDYSKYLDEARAKDFVEWLEKT-OH [Compound 5] | ≥ 1000 | 91.8 | 89.6 | 0.17
H-HSQGTFTSDYSKYLDKARAEDFVKWLEST-OH [Compound 3] | ≥ 1000 | 85.0 | 86.5 | 0.03
H-HSQGTFTSDYSKYLDLARAEDFVKWLEST-OH [Compound 17] | ≥ 1000 | 89.9 | 88.3 | 0.029
H-HSQGTFTSDYSKYLDSARAEDFVAWLEST-OH [Compound 4] | ≥ 1000 | 80.5 | 84.6 | 0.34
H-HSQGTFTSDYSKYLDSARAEDFVKWLEET-OH [Compound 2] | ≥ 1000 | 83.5 | 86.2 | 0.18
